Results published in publication PMC4222822, “Discovery and Characterization of a Potent and Selective Inhibitor of Aedes aegypti Inward Rectifier Potassium Channels” (PLoS ONE, 2014).

Target: AeKir2B (Aedes aegypti, UniProt L0EQ40)
Assay: Two-electrode electrophysiology of Xenopus oocytes expressing AeKir2B
Format: cell-based
Conditions: inward current at −140 mV, 95% CI: 31.7–64.2 µM, n = 4–5 oocytes per concentration, read-out: IC50 of AeKir2B current inhibition
Protocol: AeKir1 and AeKir2B channels were expressed heterologously in Xenopus laevis oocytes as described previously. In brief, defolliculated Xenopus oocytes (purchased from Ecocyte Bioscience, Austin, TX) were injected with 10 ng (0.35 ng/nL) of either AeKir1 or AeKir2B cRNA and cultured for 3–7 days in OR3 media at 18°C. Oocytes injected with 28 nl of nuclease-free H2O served as controls.
All electrophysiological experiments on Xenopus oocytes were performed at room temperature. When present, VU625 was dissolved in solution III or solution V to a final concentration of 0.1, 1, 5, 15, or 50 µM (0.05% DMSO). All solutions were delivered by gravity to a RC-3Z oocyte chamber (Warner Instruments, Hamden, CT) via polyethylene tubing at a flow rate of ∼2 ml/min. Solution changes were made with a Rheodyne Teflon 8-way Rotary valve (Model 5012, Rheodyne, Rohnert Park, CA).
Electrophysiological recordings from oocytes were conducted as described previously In brief, each oocyte was transferred to the holding chamber under superfusion with solution I and impaled with two conventional-glass microelectrodes backfilled with 3 M KCl (resistances of 0.5–1.5 MΩ) to measure membrane potential (Vm) and whole-cell membrane current (Im), respectively. […] All Vm and Im values were recorded by a Digidata 1440A Data Acquisition System (Molecular Devices) and the Clampex module of pCLAMP. […]

AeKir2B, sequence (L0EQ40 entry or part of it): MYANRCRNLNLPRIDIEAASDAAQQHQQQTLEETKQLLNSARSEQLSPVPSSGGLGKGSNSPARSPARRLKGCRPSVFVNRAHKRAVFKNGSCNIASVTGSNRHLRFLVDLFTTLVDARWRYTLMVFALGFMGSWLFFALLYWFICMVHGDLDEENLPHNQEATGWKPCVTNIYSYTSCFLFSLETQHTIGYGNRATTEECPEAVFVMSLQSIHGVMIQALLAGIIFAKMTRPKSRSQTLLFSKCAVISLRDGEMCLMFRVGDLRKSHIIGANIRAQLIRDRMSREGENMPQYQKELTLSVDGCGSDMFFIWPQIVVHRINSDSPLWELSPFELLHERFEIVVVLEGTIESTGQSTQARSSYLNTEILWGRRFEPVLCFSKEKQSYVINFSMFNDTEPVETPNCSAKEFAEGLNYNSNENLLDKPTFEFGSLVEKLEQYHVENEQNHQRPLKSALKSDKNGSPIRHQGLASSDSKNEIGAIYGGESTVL

Q: With `CCC(=O)N1c2ccc(S(=O)(=O)Nc3cccc(OC)c3)cc2CC1C` (stereo not shown) [VU625, N-(3-methoxyphenyl)-2-methyl-1-propionylindoline-5-sulfonamide] as the molecule, how does the IC50 read?
A: Its IC50 is 45.1 µM.
